According to US11241434B2, “Compositions and methods for improving cognition in a subject” (Yale University, priority 2013, dated 2022):

System: Fyn (phospho-Src pY416)
Experiment: pY416 and Fyn immunoblot of hippocampus of WT mice fed AZD0530 diet
Type: in vivo, mouse
Conditions: diet pellets 5 mg/kg/d, 9 months, vs Vehicle
Description: FIGS. 17A-17C illustrate reduced Fyn activation in mice fed AZD0530-containing food. FIG. 17A: Representative blots using anti-pY416, Fyn, and 8-actin antibodies of the RIPA-soluble fraction of the hippocampus of WT mice treated with Vehicle or AZD0530 for 9 months. FIG. 17B: Quantification of pY416-immunoreactive bands from the immunoblot from FIG. 17A by densitometric analysis. The bands indicated by an arrow in FIG. 17A were quantified. The band intensity was normalized to that of 8-actin and then normalized to the mean of the Vehicle-treated WT group. Data are represented as mean±SEM. n=6/group. *p<0.05; t-test. FIG. 17C: Quantification of Fyn-immunoreactive bands from the immunoblot in FIG. 17A by densitometric analysis. The band intensity was normalized to that of β-actin and then normalized to the mean of the Vehicle-treated WT group. Data are represented as mean±SEM. n=6/group. t-test.
To generate chow containing chow for chronic dosing, the compound was incorporated into purified diet pellets by Research Diets, Inc. by dissolving the compound in a solution of 0.5% w/v Hydroxypropylmethylcellulose/0.1% w/v polysorbate 80 at 1.429 mg/ml. […] The dosage of the drug in the food was calculated to take into account the average amount of food eaten by a mouse in a single day per kg of weight and adjusted to be equivalent to ingesting 5 mg/kg per day. […]

## CN1CCN(CCOc2cc(OC3CCOCC3)c3c(Nc4c(Cl)ccc5c4OCO5)ncnc3c2)CC1 [saracatinib, N-(5-chloro-benzo[d][1,3]dioxol-4-yl)-7-(2-(4-methylpiperazin-1-yl)ethoxy)-5-(tetrahydro-2H-pyran-4-yloxy)quinazolin-4-amine]
  total Fyn levels in hippocampus: no difference
